Results taken from patent publication USRE48335E1, “Polymyxin derivatives as antimicrobial compounds” (priority 2014, dated 2020).
In brackets after ≈: the same amount, converted by molar mass. Read-outs that look alike come from different tables or passages of the source. Positions of bridges follow the written chain, without caps; N, C: chain ends. Non-standard residues stand in square brackets, D forms with d. Residues, ends and D or L forms follow the SMILES beside them. *: point of attachment. Benzoyl(4-(4-Cl-Ph)) = O=C(c1ccc(-c2ccc(Cl)cc2)cc1)*; Benzoyl(3-Ph) = O=C(c1cccc(-c2ccccc2)c1)*; Benzoyl(4-Ph) = O=C(c1ccc(-c2ccccc2)cc1)*; Butanoyl(4-Ph) = O=C(CCCc1ccccc1)*; Octanoyl(6-Me) = CCC(C)CCCCC(=O)*; Nonanoyl = CCCCCCCCC(=O)*; Octanoyl = CCCCCCCC(=O)*; Dab = NCC[C@H](N)C(=O)O; Abu = CC[C@H](N)C(=O)O; Dap = NC[C@H](N)C(=O)O; Aib = CC(C)(N)C(=O)O

Tests used:
P. aeruginosa ATCC 27853 = test: In vivo efficacy in mouse blood infection model (neutropenic Swiss mice); conditions: compound, free base 4 mg/kg intravenously 2 h after inoculation, blood at 4 h
How it was run: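 Activity expressed as Δlog10 CFU/mL blood, treated minus saline control, 4 h after a single 4 mg/kg (free base) i.v. dose given 2 h post-infection. Bloodstream infection from i.v. early log-phase inoculum in Swiss mice made neutropenic by i.p. cyclophosphamide on days −4 (150 mg/kg) and −1 (100 mg/kg).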

Acinetobacter baumannii = tested on: Acinetobacter baumannii
How it was run: (§1)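 Lipopeptide TFA salts are serially diluted in cation-adjusted Mueller-Hinton broth and inoculated per the CLSI M100-S18 broth microdilution method. The MIC is then recorded, with polymyxin B sulphate included as a control.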

Pseudomonas aeruginosa = tested on: Pseudomonas aeruginosa
How it was run: as §1

Enterobacter cloacae = tested on: Enterobacter cloacae
How it was run: as §1

Klebsiella pneumoniae = tested on: Klebsiella pneumoniae
How it was run: as §1

[1] = Acinetobacter baumannii ATCC 17978, broth microdilution in CAMHB, TFA salt
[2] = Acinetobacter baumannii ATCC 19606, broth microdilution in CAMHB, TFA salt
[3] = Acinetobacter baumannii FADDI-AB034, broth microdilution in CAMHB, TFA salt
[4] = Pseudomonas aeruginosa ATCC 27853, broth microdilution in CAMHB, TFA salt
[5] = Pseudomonas aeruginosa FADDI-PA022, broth microdilution in CAMHB, TFA salt
[6] = Pseudomonas aeruginosa FADDI-PA025, broth microdilution in CAMHB, TFA salt
[7] = Enterobacter cloacae FADDI-EC001, broth microdilution in CAMHB, TFA salt
[8] = Enterobacter cloacae FADDI-EC003, broth microdilution in CAMHB, TFA salt
[9] = Enterobacter cloacae FADDI-EC006, broth microdilution in CAMHB, TFA salt

| SMILES | Δ log (Treated-Control at 4 h) (P. aeruginosa ATCC 27853) [log10 CFU/mL] | MIC (Acinetobacter baumannii; A. baumannii ATCC 19606) [µg/mL] | Minimum inhibitory concentration (MIC), Ab ATCC 17978 (Acinetobacter baumannii; [1]) [µg/mL] | Minimum inhibitory concentration (MIC), Ab ATCC 19606 (Acinetobacter baumannii; [2]) [µg/mL] | Minimum inhibitory concentration (MIC), Ab FADDI-AB034 (Acinetobacter baumannii; [3]) [µg/mL] | MIC (Pseudomonas aeruginosa; P. aeruginosa ATCC 27853) [µg/mL] | Minimum inhibitory concentration (MIC), Pa ATCC 27853 (Pseudomonas aeruginosa; [4]) [µg/mL] | Minimum inhibitory concentration (MIC), Pa FADDI-PA022 (Pseudomonas aeruginosa; [5]) [µg/mL] | MIC (Acinetobacter baumannii) [µg/mL] | Minimum inhibitory concentration (MIC), Ab ATCC 17978 (Acinetobacter baumannii) [µg/mL] | Minimum inhibitory concentration (MIC), Ab ATCC 19606 (Acinetobacter baumannii) [µg/mL] | Minimum inhibitory concentration (MIC), Ab FADDI-AB034 (Acinetobacter baumannii) [µg/mL] | MIC (Pseudomonas aeruginosa) [µg/mL] | Minimum inhibitory concentration (MIC), Pa ATCC 27853 (Pseudomonas aeruginosa) [µg/mL] | Minimum inhibitory concentration (MIC), Pa FADDI-PA022 (Pseudomonas aeruginosa) [µg/mL] | Minimum inhibitory concentration (MIC), Pa FADDI-PA025 (Pseudomonas aeruginosa) [µg/mL] | Minimum inhibitory concentration (MIC), Ec FADDI-EC001 (Enterobacter cloacae) [µg/mL] | Minimum inhibitory concentration (MIC), Ec FADDI-EC003 (Enterobacter cloacae) [µg/mL] | Minimum inhibitory concentration (MIC), Ec FADDI-EC006 (Enterobacter cloacae) [µg/mL] | MIC (Klebsiella pneumoniae) [µg/mL] | further results |
| --- | --- | --- | --- | --- | --- | --- | --- | --- | --- | --- | --- | --- | --- | --- | --- | --- | --- | --- | --- | --- | --- |
| CC[C@@H]1NC(=O)[C@@H](CC(C)C)NC(=O)[C@H](CCN)NC(=O)[C@@H](NC(=O)[C@H](CN)NC(=O)[C@@H](NC(=O)[C@H](CCN)NC(=O)c2cccc(-c3ccccc3)c2)[C@@H](C)O)CCNC(=O)[C@H]([C@@H](C)O)NC(=O)[C@H](CCN)NC(=O)[C@H](CCN)NC1=O [Compound 138] ({Benzoyl(3-Ph)}-[Dab]T[Dap][Dab][Dab][dL][Abu][Dab][Dab]T; lactam 4-C) | −2.98 | 1 (≈ 0.857 µM) | 0.5 | 1 | 0.5 | 1 (≈ 0.857 µM) | 1 | 2 |  |  |  |  |  |  |  |  |  |  |  |  | Minimum inhibitory concentration (MIC), Pa FADDI-PA025 (Pseudomonas aeruginosa; [6]): 1 µg/mL; Minimum inhibitory concentration (MIC), Ec FADDI-EC001 (Enterobacter cloacae; [7]): 0.5 µg/mL; Minimum inhibitory concentration (MIC), Ec FADDI-EC003 (Enterobacter cloacae; [8]): 1 µg/mL; Minimum inhibitory concentration (MIC), Ec FADDI-EC006 (Enterobacter cloacae; [9]): 0.5 µg/mL; MIC (Klebsiella pneumoniae; K. pneumoniae FADDI-KP032): 0.5 µg/mL (≈ 0.428 µM) |
| CCC(C)CCCCC(=O)N[C@@H](CCN)C(=O)N[C@H](C(=O)N[C@@H](CN)C(=O)N[C@H]1CCNC(=O)[C@H]([C@@H](C)O)NC(=O)[C@H](CCN)NC(=O)[C@H](CCN)NC(=O)[C@H](CC)NC(=O)[C@@H](CC(C)C)NC(=O)[C@H](CCN)NC1=O)[C@@H](C)O (stereo partly drawn) [Compound 139] ({Octanoyl(6-Me)}-[Dab]T[Dap][Dab][Dab][dL][Abu][Dab][Dab]T; lactam 4-C) | −3.19 |  |  |  |  |  |  |  | 0.5 (≈ 0.443 µM) | 0.25 (≈ 0.222 µM) | 0.5 (≈ 0.443 µM) | 0.25 (≈ 0.222 µM) | 1 (≈ 0.887 µM) | 1 (≈ 0.887 µM) | 2 (≈ 1.77 µM) | 1 (≈ 0.887 µM) | 0.5 (≈ 0.443 µM) | 0.25 (≈ 0.222 µM) | 1 (≈ 0.887 µM) | <0.125 |  |
| CCCCCCCC(=O)N[C@@H](CCN)C(=O)N[C@H](C(=O)N[C@@H](CN)C(=O)N[C@H]1CCNC(=O)[C@H]([C@@H](C)O)NC(=O)[C@H](CCN)NC(=O)[C@H](CCN)NC(=O)C(C)(C)NC(=O)[C@@H](Cc2ccccc2)NC(=O)[C@H](CCN)NC1=O)[C@@H](C)O [Compound 140] (Octanoyl-[Dab]T[Dap][Dab][Dab][dF][Aib][Dab][Dab]T; lactam 4-C) | −3.27 |  |  |  |  |  |  |  | 2 (≈ 1.74 µM) | 0.5 (≈ 0.436 µM) | 2 (≈ 1.74 µM) | 1 (≈ 0.872 µM) | 1 (≈ 0.872 µM) | 1 (≈ 0.872 µM) | 1 (≈ 0.872 µM) | 4 (≈ 3.49 µM) | 0.5 (≈ 0.436 µM) | 0.25 (≈ 0.218 µM) | 1 (≈ 0.872 µM) | 0.25 (≈ 0.218 µM) |  |
| CC[C@@H]1NC(=O)[C@@H](CC(C)C)NC(=O)[C@H](CCN)NC(=O)[C@@H](NC(=O)[C@H](CN)NC(=O)[C@@H](NC(=O)[C@H](CCN)NC(=O)c2ccc(-c3ccccc3)cc2)[C@@H](C)O)CCNC(=O)[C@H]([C@@H](C)O)NC(=O)[C@H](CCN)NC(=O)[C@H](CCN)NC1=O [Compound 142] ({Benzoyl(4-Ph)}-[Dab]T[Dap][Dab][Dab][dL][Abu][Dab][Dab]T; lactam 4-C) | −3.89 | 1 (≈ 0.857 µM) | 0.5 | 1 | 0.25 | 1 (≈ 0.857 µM) | 1 | 1 |  |  |  |  |  |  |  |  |  |  |  |  | Minimum inhibitory concentration (MIC), Pa FADDI-PA025 (Pseudomonas aeruginosa; [6]): 1 µg/mL; Minimum inhibitory concentration (MIC), Ec FADDI-EC001 (Enterobacter cloacae; [7]): 0.25 µg/mL; Minimum inhibitory concentration (MIC), Ec FADDI-EC003 (Enterobacter cloacae; [8]): 1 µg/mL; Minimum inhibitory concentration (MIC), Ec FADDI-EC006 (Enterobacter cloacae; [9]): 0.5 µg/mL; MIC (Klebsiella pneumoniae; K. pneumoniae FADDI-KP032): 0.25 µg/mL (≈ 0.214 µM) |
| CCCCCCCCC(=O)N[C@@H](CCN)C(=O)N[C@H](C(=O)N[C@@H](CN)C(=O)N[C@H]1CCNC(=O)[C@H]([C@@H](C)O)NC(=O)[C@H](CCN)NC(=O)[C@H](CCN)NC(=O)[C@H](CO)NC(=O)[C@@H](Cc2ccccc2)NC(=O)[C@H](CCN)NC1=O)[C@@H](C)O [Compound 143] (Nonanoyl-[Dab]T[Dap][Dab][Dab][dF]S[Dab][Dab]T; lactam 4-C) | −3.47 |  |  |  |  |  |  |  | 1 (≈ 0.86 µM) | 1 (≈ 0.86 µM) | 1 (≈ 0.86 µM) | 0.5 (≈ 0.43 µM) | 0.5 (≈ 0.43 µM) | 0.5 (≈ 0.43 µM) | 0.5 (≈ 0.43 µM) | 16 (≈ 13.8 µM) | 1 (≈ 0.86 µM) | 0.5 (≈ 0.43 µM) | 0.5 (≈ 0.43 µM) | 0.25 (≈ 0.215 µM) |  |
| CC(C)C[C@H]1NC(=O)[C@H](CCN)NC(=O)[C@@H](NC(=O)[C@H](CN)NC(=O)[C@@H](NC(=O)[C@H](CCN)NC(=O)c2ccc(-c3ccc(Cl)cc3)cc2)[C@@H](C)O)CCNC(=O)[C@H]([C@@H](C)O)NC(=O)[C@H](CCN)NC(=O)[C@H](CCN)NC(=O)[C@H](C)NC1=O [Compound 144] ({Benzoyl(4-(4-Cl-Ph))}-[Dab]T[Dap][Dab][Dab][dL]A[Dab][Dab]T; lactam 4-C) | −2.98 | 1 (≈ 0.842 µM) | 1 | 1 | 0.5 | 1 (≈ 0.842 µM) | 1 | 2 |  |  |  |  |  |  |  |  |  |  |  |  | Minimum inhibitory concentration (MIC), Pa FADDI-PA025 (Pseudomonas aeruginosa; [6]): 1 µg/mL; Minimum inhibitory concentration (MIC), Ec FADDI-EC001 (Enterobacter cloacae; [7]): 2 µg/mL; Minimum inhibitory concentration (MIC), Ec FADDI-EC003 (Enterobacter cloacae; [8]): 1 µg/mL; Minimum inhibitory concentration (MIC), Ec FADDI-EC006 (Enterobacter cloacae; [9]): 1 µg/mL; MIC (Klebsiella pneumoniae; K. pneumoniae FADDI-KP032): 1 µg/mL (≈ 0.842 µM) |
| CC(C)C[C@H]1NC(=O)[C@H](CCN)NC(=O)[C@@H](NC(=O)[C@H](CN)NC(=O)[C@@H](NC(=O)[C@H](CCN)NC(=O)CCCc2ccccc2)[C@@H](C)O)CCNC(=O)[C@H]([C@@H](C)O)NC(=O)[C@H](CCN)NC(=O)[C@H](CCN)NC(=O)[C@H](C)NC1=O [Compound 146] ({Butanoyl(4-Ph)}-[Dab]T[Dap][Dab][Dab][dL]A[Dab][Dab]T; lactam 4-C) | −3.63 |  |  |  |  |  |  |  | 4 (≈ 3.57 µM) | 1 (≈ 0.893 µM) | 4 (≈ 3.57 µM) | 2 (≈ 1.79 µM) | 0.5 (≈ 0.447 µM) | 0.5 (≈ 0.447 µM) | 0.5 (≈ 0.447 µM) | >32 | 0.5 (≈ 0.447 µM) | 0.25 (≈ 0.223 µM) | 0.5 (≈ 0.447 µM) | 0.5 (≈ 0.447 µM) |  |
